Reference: patent US20120029187A1, “HALOALKYLSULFONANILIDE DERIVATIVE” (Nissan Chemical Industries, Ltd., priority 2009, published 2012)

Key:
Format in all cases: in vivo
[1] = test system: water foxtail; assay: Test Example 4: herbicidal effect in foliage treatment; details: dose 3.2 g/a, three weeks after application
Procedure, shortened: (§1)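 Doses are given in grams per are of applied compound, sprayed as water-diluted emulsifiable concentrate onto foliage of 14-day-old plants grown at 25 to 30° C. Herbicidal activity was assessed visually on a rating scale after three weeks.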

[2] = test system: velvetleaf; assay: as above; details: dose 3.2 g/a, three weeks after application
Procedure, shortened: as §1

[3] = test system: Italian ryegrass; assay: as above; details: dose 3.2 g/a, three weeks after application
Procedure, shortened: as §1

[4] = test system: common lambsquater; assay: as above; details: dose 3.2 g/a, three weeks after application
Procedure, shortened: as §1

[5] = test system: barnyardgrass; assay: as above; details: dose 3.2 g/a, three weeks after application
Procedure, shortened: as §1

[6] = test system: giant foxtail; assay: as above; details: dose 3.2 g/a, three weeks after application
Procedure, shortened: as §1

[7] = test system: common ragweed; assay: as above; details: dose 3.2 g/a, three weeks after application
Procedure, shortened: as §1

[8] = test system: common chickweed; assay: as above; details: dose 3.2 g/a, three weeks after application
Procedure, shortened: as §1

[9] = test system: large crabgrass; assay: as above; details: dose 3.2 g/a, three weeks after application
Procedure, shortened: as §1

[10] = test system: redroot pigweed; assay: as above; details: dose 3.2 g/a, three weeks after application
Procedure, shortened: as §1

[11] = test system: beadstraw; assay: as above; details: dose 3.2 g/a, three weeks after application
Procedure, shortened: as §1

[12] = test system: posumbu knotweed; assay: as above; details: dose 3.2 g/a, three weeks after application
Procedure, shortened: as §1

[13] = test system: barnyardgrass; assay: Test Example 2: herbicidal effects during the vegetation period under submerged conditions; details: treatment during the vegetation period under submerged conditions; dose 2.52 g/a
Procedure, shortened: (§2)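 Barnyardgrass, bulrush and ducksalad were co-sown in alluvial soil flooded to 4 cm and grown in a greenhouse at 25 to 30° C. At the 1- or 2-leaf stage, water-diluted emulsifiable concentrates went onto the water surface at set doses (g/a). Herbicidal effect was scored three weeks later on a graded scale.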

[14] = test system: ducksalad; assay: as above; details: treatment during the vegetation period under submerged conditions; dose 2.52 g/a
Procedure, shortened: as §2

[15] = test system: bulrush; assay: as above; details: treatment during the vegetation period under submerged conditions; dose 2.52 g/a
Procedure, shortened: as §2

[16] = test system: transplanted rice; assay: Test Example 1: preemergence treatment under submerged conditions, effect on crop; details: dose 2.52 g/a
Procedure, shortened: (§3)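 Submerged conditions, 4 cm water over alluvial soil. Weeds sown and 2.5-leaf rice transplanted; compound applied preemergence to water surface, doses in g per are. Greenhouse, 25 to 30° C., three weeks, then 0–5 mortality rating.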

[17] = test system: water foxtail; assay: Test Example 3: herbicidal effects in soil treatment; details: dose 3.2 g/a
Procedure, shortened: (§4)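 Seeds were sown in sterilized diluvial soil and covered with about 1.5 cm of soil. Compounds, formulated as emulsifiable concentrates and diluted with water, were sprayed evenly over the soil surface at set doses in g/a. Herbicidal effect was scored on a rating scale three weeks later.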

[18] = test system: velvetleaf; assay: as above; details: dose 3.2 g/a
Procedure, shortened: as §4

[19] = test system: Italian ryegrass; assay: as above; details: dose 3.2 g/a
Procedure, shortened: as §4

[20] = test system: common lambsquater; assay: as above; details: dose 3.2 g/a
Procedure, shortened: as §4

[21] = test system: barnyardgrass; assay: as above; details: dose 3.2 g/a
Procedure, shortened: as §4

[22] = test system: giant foxtail; assay: as above; details: dose 3.2 g/a
Procedure, shortened: as §4

[23] = test system: common ragweed; assay: as above; details: dose 3.2 g/a
Procedure, shortened: as §4

[24] = test system: common chickweed; assay: as above; details: dose 3.2 g/a
Procedure, shortened: as §4

[25] = test system: large crabgrass; assay: as above; details: dose 3.2 g/a
Procedure, shortened: as §4

[26] = test system: redroot pigweed; assay: as above; details: dose 3.2 g/a
Procedure, shortened: as §4

[27] = test system: posumbu knotweed; assay: as above; details: dose 3.2 g/a
Procedure, shortened: as §4

[28] = test system: barnyardgrass; assay: Test Example 1: herbicidal effects in preemergence treatment under submerged conditions; details: dose 2.52 g/a
Procedure, shortened: as §3

[29] = test system: ducksalad; assay: as above; details: dose 2.52 g/a
Procedure, shortened: as §3

[30] = test system: bulrush; assay: as above; details: dose 2.52 g/a
Procedure, shortened: as §3

Compound	G: water foxtail, herbicidal effect [1]	I: velvetleaf, herbicidal effect [2]	H: Italian ryegrass, herbicidal effect [3]	L: common lambsquater, herbicidal effect [4]	A: barnyardgrass, herbicidal effect [5]	E: giant foxtail, herbicidal effect [6]	J: common ragweed, herbicidal effect [7]	N: common chickweed, herbicidal effect [8]	D: large crabgrass, herbicidal effect [9]	K: redroot pigweed, herbicidal effect [10]	O: beadstraw, herbicidal effect [11]	M: posumbu knotweed, herbicidal effect [12]	A: barnyardgrass, herbicidal effect (evaluation scale 0-5) [13]	C: ducksalad, herbicidal effect (evaluation scale 0-5) [14]	B: bulrush, herbicidal effect (evaluation scale 0-5) [15]	a: transplanted rice, effect on crop (evaluation scale 0-5) [16]	G: water foxtail, herbicidal effect (evaluation scale 0-5) [17]	I: velvetleaf, herbicidal effect (evaluation scale 0-5) [18]	H: Italian ryegrass, herbicidal effect (evaluation scale 0-5) [19]	L: common lambsquater, herbicidal effect (evaluation scale 0-5) [20]	other results
CCOC(=O)N(c1ccccc1CN1COC2(CCCCC2)CC1=O)S(=O)(=O)C(F)(F)F [II-68]	3 (mortality of at least 40% and less than 70%)	4 (mortality of at least 70% and less than 90%)	1 (mortality of at least 5% and less than 20%)	4 (mortality of at least 70% and less than 90%)	5 (mortality of 90% or above (nearly complete death))	5 (mortality of 90% or above (nearly complete death))	3 (mortality of at least 40% and less than 70%)	4 (mortality of at least 70% and less than 90%)	4 (mortality of at least 70% and less than 90%)	2 (mortality of at least 20% and less than 40%)	3 (mortality of at least 40% and less than 70%)	2 (mortality of at least 20% and less than 40%)	5 (mortality of 90% or above (nearly complete death))	5 (mortality of 90% or above (nearly complete death))	5 (mortality of 90% or above (nearly complete death))	3 (mortality of at least 40% and less than 70%)	5 (mortality of 90% or above (nearly complete death))	5 (mortality of 90% or above (nearly complete death))	5 (mortality of 90% or above (nearly complete death))	4 (mortality of at least 70% and less than 90%)	A: barnyardgrass, herbicidal effect (evaluation scale 0-5) [21]: 5 (mortality of 90% or above (nearly complete death)); E: giant foxtail, herbicidal effect (evaluation scale 0-5) [22]: 5 (mortality of 90% or above (nearly complete death)); J: common ragweed, herbicidal effect (evaluation scale 0-5) [23]: 2 (mortality of at least 20% and less than 40%); N: common chickweed, herbicidal effect (evaluation scale 0-5) [24]: 4 (mortality of at least 70% and less than 90%); D: large crabgrass, herbicidal effect (evaluation scale 0-5) [25]: 5 (mortality of 90% or above (nearly complete death)); K: redroot pigweed, herbicidal effect (evaluation scale 0-5) [26]: 3 (mortality of at least 40% and less than 70%); M: posumbu knotweed, herbicidal effect (evaluation scale 0-5) [27]: 5 (mortality of 90% or above (nearly complete death)); A: barnyardgrass, herbicidal effect (evaluation scale 0-5) [28]: 5 (mortality of 90% or above (nearly complete death)); C: ducksalad, herbicidal effect (evaluation scale 0-5) [29]: 5 (mortality of 90% or above (nearly complete death)); B: bulrush, herbicidal effect (evaluation scale 0-5) [30]: 5 (mortality of 90% or above (nearly complete death))
CCC1(C)CC(=O)N(Cc2ccccc2NS(=O)(=O)C(F)(F)F)CO1 (stereo not drawn) [II-40]	5 (mortality of 90% or above (nearly complete death))	5 (mortality of 90% or above (nearly complete death))	5 (mortality of 90% or above (nearly complete death))	4 (mortality of at least 70% and less than 90%)	5 (mortality of 90% or above (nearly complete death))	4 (mortality of at least 70% and less than 90%)	4 (mortality of at least 70% and less than 90%)	4 (mortality of at least 70% and less than 90%)	3 (mortality of at least 40% and less than 70%)	0 (mortality of less than 5% (almost ineffective))	3 (mortality of at least 40% and less than 70%)	0 (mortality of less than 5% (almost ineffective))	4 (mortality of at least 70% and less than 90%)	5 (mortality of 90% or above (nearly complete death))	5 (mortality of 90% or above (nearly complete death))	0 (mortality of less than 5% (almost ineffective))	5 (mortality of 90% or above (nearly complete death))	5 (mortality of 90% or above (nearly complete death))	5 (mortality of 90% or above (nearly complete death))	0 (mortality of less than 5% (almost ineffective))	A: barnyardgrass, herbicidal effect (evaluation scale 0-5) [21]: 5 (mortality of 90% or above (nearly complete death)); E: giant foxtail, herbicidal effect (evaluation scale 0-5) [22]: 5 (mortality of 90% or above (nearly complete death)); J: common ragweed, herbicidal effect (evaluation scale 0-5) [23]: 5 (mortality of 90% or above (nearly complete death)); N: common chickweed, herbicidal effect (evaluation scale 0-5) [24]: 5 (mortality of 90% or above (nearly complete death)); D: large crabgrass, herbicidal effect (evaluation scale 0-5) [25]: 5 (mortality of 90% or above (nearly complete death)); K: redroot pigweed, herbicidal effect (evaluation scale 0-5) [26]: 4 (mortality of at least 70% and less than 90%); M: posumbu knotweed, herbicidal effect (evaluation scale 0-5) [27]: 4 (mortality of at least 70% and less than 90%); A: barnyardgrass, herbicidal effect (evaluation scale 0-5) [28]: 5 (mortality of 90% or above (nearly complete death)); C: ducksalad, herbicidal effect (evaluation scale 0-5) [29]: 5 (mortality of 90% or above (nearly complete death)); B: bulrush, herbicidal effect (evaluation scale 0-5) [30]: 5 (mortality of 90% or above (nearly complete death))
